Among the test systems are NCI-H460; CCRF-CEM; RXF 393; HOP-62; MOLT-4; U-251; HCT-15; HCT-116; SF-268; SW-620; SK-MEL-5; SK-MEL-28; Malme-3M; HOP-92; TK-10; SN12C; SF-539; EKVX.
What all share (experiment): NCI-60 cell line screen, 48 h

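Step 1: Grow cells in 96-well plates. Step 2: Expose to compound for 48 hours at 5 concentrations. Step 3: Interpolate endpoints linearly; if unreached, use highest concentration. GI50: concentration for 50% inhibition of growth.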 The source made the active and inactive calls. Rule as the data show it: active = GI50 up to about 1.1 µM and inactive = higher.

As for `CC(C)(C)OC(=O)N[C@H]1CC2(C=C(Cl)C(=O)C(Cl)=C2)OC1=O`, the GI50 in the test on NCI-H460 was 24.3 µM (inactive); with CCRF-CEM, 1.38 µM (inactive); in the test on RXF 393, 10.1 µM (inactive); in the test with HOP-62, > 58.9 µM (inactive); with MOLT-4 it was 2.48 µM (inactive); with U-251, 20.7 µM (inactive). The GI50 with HCT-15 was 14.2 µM; in the test with HCT-116 it was 14.8 µM (inactive); in the test on SF-268, 17.3 µM (inactive); in the test on SW-620, 4.33 µM (inactive); with SK-MEL-5 it was 19.1 µM (inactive); in the test on SK-MEL-28, 11.4 µM (inactive). In addition, the GI50 was 11.5 µM (inactive) in the test with Malme-3M; 16.9 µM (inactive) in the test with HOP-92; 17.5 µM (inactive) in the test on TK-10; 18.5 µM (inactive) with SN12C; 21.1 µM (inactive) in the test on SF-539; 15.2 µM (inactive) in the test with EKVX.

`O=C(CCc1cc(-c2ccccc2)[nH]c(=S)n1)Nc1ccccc1[N+](=O)[O-]`: the GI50 in the test with NCI-H460, in the test with CCRF-CEM, in the test on RXF 393, in the test with HOP-62, with MOLT-4 and in the test on U-251 was > 100 µM (inactive) throughout. Further, the GI50 in the test with HCT-15 is greater than 100 µM; with HCT-116, > 100 µM (inactive); with SF-268 it was > 100 µM (inactive); in the test with SW-620 it was > 100 µM (inactive); with SK-MEL-5, > 100 µM (inactive); with SK-MEL-28 it was > 100 µM (inactive). The GI50 with Malme-3M, in the test on HOP-92, with TK-10, in the test on SN12C, in the test with SF-539 and in the test with EKVX was > 100 µM (inactive) each time.

As to `COc1ccc(CC2NCCc3cc(OC)c(OC)cc32)cc1` (configuration not stated), the GI50 in the test with NCI-H460, in the test on CCRF-CEM, with RXF 393, in the test on HOP-62, in the test with MOLT-4 and with U-251 was > 100 µM (inactive) in each case. The GI50 is greater than 100 µM in the test with HCT-15; > 100 µM (inactive) in the test on HCT-116; > 100 µM (inactive) with SF-268; > 100 µM (inactive) with SW-620; > 100 µM (inactive) in the test on SK-MEL-5; > 100 µM (inactive) in the test with SK-MEL-28. The GI50 is > 100 µM (inactive) with Malme-3M; 57.4 µM (inactive) in the test on HOP-92; > 100 µM (inactive) with TK-10; > 100 µM (inactive) in the test with SN12C; > 100 µM (inactive) with SF-539; > 100 µM (inactive) in the test on EKVX.

In the case of `c1ccc2c(OCCSCCCCCCCCCCSCCOc3cccc4ccccc34)cccc2c1`, the GI50 with NCI-H460, with CCRF-CEM, in the test with RXF 393, with HOP-62, with MOLT-4 and with U-251 was > 100 µM (inactive) in each case. The GI50 in the test with HCT-15 was greater than 100 µM; in the test on SF-268, > 100 µM (inactive); with SW-620, > 100 µM (inactive); in the test on SK-MEL-5, > 100 µM (inactive); with SK-MEL-28 it was > 100 µM (inactive); in the test on Malme-3M, > 100 µM (inactive). Also, the GI50 in the test on HOP-92, in the test on TK-10, in the test on SN12C, with SF-539 and with EKVX was > 100 µM (inactive) each time.

In the case of `CCCCCCCCCCCCCC(=O)O[C@H]1CC[C@H](NC(=O)[C@H](OC)[C@H](O)[C@@H](O)[C@H](O)/C=C/C(C)C)C(=O)N(C)C1` [BENGAMIDE B], the GI50 in the test on NCI-H460 was < 0.0015 µM (active); in the test on CCRF-CEM, 0.0122 µM (active); in the test with RXF 393, 0.0615 µM (active); with HOP-62, 0.00809 µM (active); in the test on MOLT-4, 0.00643 µM (active); in the test with U-251 it was 0.00286 µM (active). For the same molecule, the GI50 in the test with HCT-15 was 0.028 µM; with HCT-116, 0.00247 µM (active); with SF-268, 0.0036 µM (active); in the test with SW-620, 0.00433 µM (active); with SK-MEL-5, 0.0199 µM (active); in the test with SK-MEL-28, 0.0113 µM (active). Also, the GI50 is 0.0362 µM (active) with Malme-3M; 0.00684 µM (active) with HOP-92; 0.179 µM (active) in the test with TK-10; 0.00419 µM (active) with SN12C; 0.0108 µM (active) in the test with SF-539; 1.08 µM (active) with EKVX.

Take `O=C(CC(=O)c1cccc([N+](=O)[O-])c1)C(=O)Nc1ccccc1`: the GI50 with NCI-H460, in the test on CCRF-CEM, with RXF 393, with HOP-62, in the test with MOLT-4 and with U-251 was > 100 µM (inactive) in each case. Also, the GI50 in the test with HCT-15 is greater than 100 µM; with HCT-116 it was > 100 µM (inactive); in the test with SF-268, > 100 µM (inactive); in the test with SW-620 it was > 100 µM (inactive); in the test with SK-MEL-5, > 100 µM (inactive); in the test on SK-MEL-28, > 100 µM (inactive). The GI50 in the test with Malme-3M, in the test with HOP-92, in the test with TK-10, in the test with SN12C, in the test with SF-539 and in the test on EKVX was > 100 µM (inactive) throughout.

In the case of `Nc1nc2sc3ccccc3c(=O)n2n1`, the GI50 in the test with NCI-H460, in the test on CCRF-CEM, in the test with RXF 393, with HOP-62, with MOLT-4 and in the test with U-251 was > 100 µM (inactive) in each case. Besides, the GI50 in the test on HCT-15 was greater than 100 µM; in the test on HCT-116 it was > 100 µM (inactive); in the test with SF-268, > 100 µM (inactive); with SW-620 it was > 100 µM (inactive); in the test on SK-MEL-5, > 100 µM (inactive); in the test with SK-MEL-28, > 100 µM (inactive). The GI50 in the test on Malme-3M is > 100 µM (inactive); in the test on HOP-92 it was > 100 µM (inactive); with TK-10, > 100 µM (inactive); in the test with SN12C, > 100 µM (inactive); in the test with SF-539 it was > 100 µM (inactive); with EKVX, 64.7 µM (inactive).

`Clc1ccc(-c2c(C3=NCCN3)nnn2-c2ccc(Cl)cc2)cc1`: the GI50 in the test with NCI-H460 was 14.8 µM (inactive); with CCRF-CEM, 22.6 µM (inactive); with RXF 393 it was 16.7 µM (inactive); in the test with HOP-62, 53.1 µM (inactive); with MOLT-4, 11.4 µM (inactive); in the test with U-251, 20.5 µM (inactive). Also, the GI50 in the test with HCT-15 is 30.1 µM; in the test on HCT-116 it was 15 µM (inactive); in the test on SF-268, 32.2 µM (inactive); in the test with SW-620, 25.9 µM (inactive); in the test on SK-MEL-5, 16.8 µM (inactive); with SK-MEL-28, 25.1 µM (inactive). Moreover, the GI50 was 19.1 µM (inactive) in the test on Malme-3M; 18.2 µM (inactive) in the test on HOP-92; 19.7 µM (inactive) with TK-10; 71.4 µM (inactive) in the test with SN12C; 18.2 µM (inactive) in the test on SF-539; 59.8 µM (inactive) with EKVX.

For `CCN(CC)CCOc1ccc(C(O)(Cc2ccc(OC)cc2)c2ccccc2)cc1` (configuration not stated), the GI50 was 22.2 µM (inactive) in the test with NCI-H460; 17.6 µM (inactive) in the test with CCRF-CEM; 13.1 µM (inactive) with RXF 393; 15.9 µM (inactive) in the test on HOP-62; 14.4 µM (inactive) with MOLT-4; 16.2 µM (inactive) in the test with U-251. For the same molecule, the GI50 is 19.1 µM in the test on HCT-15; 13.8 µM (inactive) in the test with HCT-116; 21.5 µM (inactive) with SF-268; 17.2 µM (inactive) in the test with SW-620; 13.2 µM (inactive) in the test on SK-MEL-5; 13.9 µM (inactive) with SK-MEL-28. Besides, the GI50 with Malme-3M was 18.5 µM (inactive); with HOP-92, 14.7 µM (inactive); in the test with TK-10, 28.7 µM (inactive); in the test on SN12C it was 27.9 µM (inactive); in the test with SF-539 it was 12.4 µM (inactive); in the test with EKVX, 26.9 µM (inactive).

As to `CCOC(=O)NC1C2CC(=O)OC(O2)C1OC(C)=O` (configuration not stated), the GI50 in the test on NCI-H460, in the test with CCRF-CEM, in the test with RXF 393, with HOP-62, in the test with MOLT-4 and in the test on U-251 was > 100 µM (inactive) each time. Also, the GI50 with HCT-15 is greater than 100 µM; in the test on HCT-116, > 100 µM (inactive); in the test with SF-268 it was > 100 µM (inactive); with SW-620, > 100 µM (inactive); in the test on SK-MEL-5, > 100 µM (inactive); in the test with SK-MEL-28 it was > 100 µM (inactive). Also, the GI50 with Malme-3M was > 100 µM (inactive); in the test with HOP-92, > 100 µM (inactive); in the test on TK-10, > 100 µM (inactive); with SN12C, 99.3 µM (inactive); with SF-539, > 100 µM (inactive); in the test on EKVX it was > 100 µM (inactive).

As to `[N-]=[N+]=NCC(O)Cn1cnc2c(NC(=O)c3ccccc3)ncnc21` (configuration not stated), the GI50 with NCI-H460, in the test on CCRF-CEM, in the test on RXF 393, with HOP-62, in the test with MOLT-4 and in the test with U-251 was > 100 µM (inactive) each time. Moreover, the GI50 with HCT-15 was greater than 100 µM; with HCT-116, > 100 µM (inactive); in the test on SF-268, > 100 µM (inactive); in the test with SW-620, 43.8 µM (inactive); with SK-MEL-5 it was > 100 µM (inactive); with SK-MEL-28, > 100 µM (inactive). The GI50 with Malme-3M, with HOP-92, in the test with TK-10, with SN12C, in the test with SF-539 and in the test with EKVX was > 100 µM (inactive) in each case.

Source of the values: ChEMBL document CHEMBL1201862, “PubChem BioAssay data set” (2004).
